This is an account of results in US6242445A, “Benzimidazole derivative” (Kureha Chemical Industry Co., Ltd., priority 1998, dated 2001).

As a reminder, the inhibition is the share of the control response that was lost under treatment.

The conditions of data set [1]: J. Clin. Pharmacol., 30: 155 to 158, 1990; cited from earlier work.
Data set [2] has as its target T1, angiotensin II receptor subtype 2 (AT2) (Bos taurus, UniProt G5E6F7).
T1 construct: from cerebellar cortex in bovine; from tissue; host or cells: cerebellar cortex, bovine
T1 sequence (G5E6F7 1-362): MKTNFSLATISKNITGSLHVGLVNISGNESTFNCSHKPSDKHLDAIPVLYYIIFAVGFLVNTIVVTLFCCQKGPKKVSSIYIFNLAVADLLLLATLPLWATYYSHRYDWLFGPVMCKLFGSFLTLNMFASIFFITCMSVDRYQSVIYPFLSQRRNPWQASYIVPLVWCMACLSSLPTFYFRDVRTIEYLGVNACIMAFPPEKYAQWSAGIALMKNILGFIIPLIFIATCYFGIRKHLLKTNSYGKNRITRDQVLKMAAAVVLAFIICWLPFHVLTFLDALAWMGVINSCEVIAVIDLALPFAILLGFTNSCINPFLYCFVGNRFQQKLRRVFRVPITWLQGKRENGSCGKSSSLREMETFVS
Nature of the data set: Binding assay, angiotensin II receptor subtype 2 (AT2). As to conditions: 1 h; tracer 125I-Tyr4-angiotensin II. On the set-up: species or system bovine; dose or concentration left out as unconfirmed. Here is the method: (§1) In this Example, a binding assay was carried out. That is, the affinity to the angiotensin II receptor subtype 1 orsubtype 2 was evaluated in accordance with the method described in Biochem. Pharmacol., 33, 4057-4062 (1984).
(§2) Specifically, the measurement of the total binding in the presence of each drug was performed as follows:
(§3) A mixture (final volume=0.25 ml) of a drug in a given concentration (the drug was dissolved in DMSO, and diluted to a double volume with a buffer attached to a drug discovery system to prepare a sample for the assay; 0.025 ml), a tracer (0.025 ml), and receptors (0.2 ml) was incubated [in the case of the angiotensin II receptor subtype 1 (AT1), at room temperature for 3 hours, and in the case of the subtype 2 (AT2), at 37° C. for 1 hour]. Then, the reaction mixture was filtered with suction (a GF/C filter was used in AT1, and a GF/B filter was used in AT2). The filter papers after filtration with suction (the tracer bound to the receptors) were counted by a γ-well counter (ARC-500, Aloka). The non-specific bindings were measured by repeating the above method, except that a large excess amount of a displacer was added. The specific binding of the drug in the given concentration was calculated by subtracting the non-specific binding from the total binding, respectively.
In AT1 and AT2, the percentages found to inhibit the bindings of radioactive ligands (tracer) to receptors by the drugs to be tested (IC50 value of concentration to show 50% inhibition, […]) were measured, using the drugs to be tested and control drugs in the given concentration.
receptor: from cerebellar cortex in bovine
tracer: ^125 I-Tyr^4 -angiotensin II
control drug: angiotensin II (human)
(displacer): angiotensin II (human)

Data set [3] deals with T2, angiotensin II receptor subtype 1 (AT1) (Oryctolagus cuniculus, UniProt P34976).
T2 construct: from adrenal glands in rabbits; from tissue; host or cells: adrenal glands of rabbits
T2 sequence (P34976 1-359): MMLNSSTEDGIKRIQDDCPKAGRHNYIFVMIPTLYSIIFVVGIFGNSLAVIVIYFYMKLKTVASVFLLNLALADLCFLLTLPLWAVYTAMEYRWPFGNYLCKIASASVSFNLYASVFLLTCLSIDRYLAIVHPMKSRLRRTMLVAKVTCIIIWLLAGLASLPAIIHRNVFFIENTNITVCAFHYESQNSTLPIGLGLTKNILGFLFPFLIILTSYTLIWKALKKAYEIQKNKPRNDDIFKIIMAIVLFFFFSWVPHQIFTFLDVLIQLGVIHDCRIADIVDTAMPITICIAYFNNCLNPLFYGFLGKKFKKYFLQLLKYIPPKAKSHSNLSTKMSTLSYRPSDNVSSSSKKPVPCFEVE
Nature of the data set: Binding assay, angiotensin II receptor subtype 1 (AT1). On the set-up: species or system rabbits; inhibition: dose or concentration left out as unconfirmed. As to conditions: 3 h. Here is the method:
as §1, §2, §3
tracer: ^3 H-angiotensin II

A further data set deals with ICR female mice. Nature of the data set: Acute toxicity (single oral administration). Particulars: 500 mg/kg single oral; deaths observed for 6 days. It is filed as in vivo. The method, then:
Acute toxicity was evaluated in this Example. As a compound to be examined, 2-ethoxy-1-[[4'-(2"-N,N-dimethylamino-ethoxycarbonyl)phenyl]methyl]-1H-benzimidazole-6-carboxylic acid morpholide (Compound No. 13) prepared in Example 6 was used.
Five-week-old ICR female mice (5 mice per group) were bredfor acclimation for a week. Then, Compound No. 13 was dissolved or suspended in 0.5% methylcellulose aqueous solution, and orally administered to the mice in a single dosage (500 mg/kg). […] Further, as to Compound No. 55, Compound No. 57, Compound No. 59, and Compound No. 65 prepared in Examples 26, 28, 31, and 23, respectively, acute toxicity was also evaluated.

As for `C[C@H](CS)C(=O)N1CCC[C@H]1C(=O)O` [Captopril], in data set [1], the Blood pressure result is recorded as “the blood pressure is lowered” and the “progress of the kidney diseases” value is reported as “the progress of the kidney diseases is ameliorated”.
Regarding `CCOc1nc2ccc(C(=O)N3CCOCC3)cc2n1Cc1ccc(C(=O)O)cc1` [Compound No. 1, 2-ethoxy-1-[(4'-carboxyphenyl)methyl]-1H-benzimidazole-6-carboxylic acid morpholide], the inhibition turned out to be 0% in data set [2] and 45% in data set [3].
The like results for `CCCOc1nc2ccc(C(=O)N3CCOCC3)cc2n1Cc1ccc(C(=O)O)cc1` [Compound No. 3, 2-n-propoxy-1-[(4'-carboxyphenyl)methyl]-1H-benzimidazole-6-carboxylic acid morpholide] were, in that order, 0% and 45%.
With `CCCCOc1nc2ccc(C(=O)N3CCOCC3)cc2n1Cc1ccc(C(=O)O)cc1` [Compound No. 4], the inhibition in data set [2] stood at 0%; in data set [3], 45%.
As to `CCOc1nc2ccc(C(=O)N3CCCCC3)cc2n1Cc1ccc(C(=O)O)cc1` [Compound No. 5, 2-ethoxy-1-[(4'-carboxyphenyl)methyl]-1H-benzimidazole-6-carboxylic acid piperidinamide], the inhibition in data set [2] came to 0%; in data set [3], 50%.
As for `CCOc1nc2ccc(C(=O)N3CCCC3)cc2n1Cc1ccc(C(=O)O)cc1` [Compound No. 6, 2-ethoxy-1-[(4'-carboxyphenyl)methyl]-1H-benzimidazole-6-carboxylic acid pyrrolidinamide], the inhibition in data set [2] amounted to 0%; in data set [3] it was 50%.
Regarding `CCOc1nc2ccc(C(=O)N3CCCCC3)cc2n1Cc1ccc(C(=O)OCCN(C)C)cc1` [Compound No. 55, 2-ethoxy-1-[[4'-(2"-N,N-dimethylaminoethoxycarbonyl)phenyl]methyl]-1H-benzimidazole-6-carboxylic acid piperidinamide], the “Number of deaths/number of survivals” value with ICR female mice is reported as 0/5.
For `CCOc1nc2ccc(C(=O)N3CCCCCC3)cc2n1Cc1ccc(C(=O)OCCN(C)C)cc1` [Compound No. 59, 2-ethoxy-1-[[4'-(2"-N,N-dimethylaminoethoxycarbonyl)phenyl]methyl]-1H-benzimidazole-6-carboxylic acid perhydroazepinamide], in the data set with ICR female mice, the “Number of deaths/number of survivals” value is on record as 0/5.
On the same count and under the same terms, with `CCOc1nc2ccc(C(=O)N3CCCC3)cc2n1Cc1ccc(C(=O)OCCN(C)C)cc1` [Compound No. 65, 2-ethoxy-1-[[4'-[2"-(dimethylamino)-ethoxycarbonyl]phenyl]methyl]-1H-benzimidazole-6-carboxylic acid pyrrolidinamide] the figure was 0/5.
Consider `CCOC(=O)[C@H](CCc1ccccc1)N[C@@H](C)C(=O)N1CCC[C@H]1C(=O)O` [Enalapril], for which, in data set [1], the Blood pressure entry is “the blood pressure is lowered” and the “progress of the kidney diseases” value is listed as “the progress of the kidney diseases is ameliorated”.
Consider `CCOc1nc2ccc(C(=O)N3CCOCC3)cc2n1Cc1ccc(O)cc1` [compound 2], for which the inhibition in data set [2] and in data set [3] was 0% throughout.
